The record followed here is ChEMBL document CHEMBL1201862, “PubChem BioAssay data set” (2004).

Test systems include HL-60; SNB-19; HCT-116; COLO 205; SF-539; SN12C; EKVX; SK-MEL-28; HT-29; SF-268; UACC-62; SK-MEL-2; HCT-15; IGROV-1; A549; SK-MEL-5; OVCAR-5; ACHN.
Common to all, as to assay: growth of human tumour cells (NCI), 48 h

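Test compounds were applied to cells in 96-well plates for 48 hours at 5 doses. Here, GI50 denotes the concentration required for 50% inhibition of growth.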 Active and inactive are the calls of the source. Cut-off read from the data, not from the text of the source: active = GI50 up to about 1.1 µM and inactive = higher. Some results are limits rather than exact numbers.

Turning to `O=[N+]([O-])c1ccc(Nc2cccc3c4cc[nH]c(-c5ccccc5)c-4nc23)c([N+](=O)[O-])c1`, the GI50 in the assay on HL-60, with SNB-19, with HCT-116, in the assay on COLO 205, in the assay with SF-539 and in the assay on SN12C was > 100 µM (inactive) in each case. Besides, the GI50 is > 100 µM (inactive) with EKVX; > 100 µM (inactive) with SK-MEL-28; > 100 µM (inactive) in the assay with HT-29; > 100 µM (inactive) with SF-268; 93.5 µM (inactive) in the assay with UACC-62; > 100 µM (inactive) in the assay with SK-MEL-2. Also, the GI50 in the assay with HCT-15 is greater than 100 µM; in the assay on IGROV-1, > 100 µM (inactive); in the assay on A549, > 100 µM (inactive); in the assay on SK-MEL-5, > 100 µM (inactive); in the assay on OVCAR-5, > 100 µM (inactive).
Consider `COc1ccc(S(=O)(=O)c2ccccc2[N+](=O)[O-])cc1`, for which the GI50 is 55.6 µM (inactive) with HL-60; > 100 µM (inactive) in the assay on SNB-19; > 100 µM (inactive) in the assay with HCT-116; > 100 µM (inactive) in the assay with COLO 205; > 100 µM (inactive) in the assay on SF-539; 86.1 µM (inactive) in the assay on SN12C. Besides, the GI50 with EKVX was > 100 µM (inactive); with SK-MEL-28, 53.5 µM (inactive); in the assay on HT-29, > 100 µM (inactive); in the assay with SF-268, > 100 µM (inactive); with UACC-62, > 100 µM (inactive); with SK-MEL-2, > 100 µM (inactive). Moreover, the GI50 with HCT-15 was greater than 100 µM; in the assay on IGROV-1 it was > 100 µM (inactive); in the assay on A549 it was > 100 µM (inactive); in the assay with SK-MEL-5, 65 µM (inactive); in the assay on OVCAR-5, > 100 µM (inactive).
For `Cc1ccc(Oc2ccc(C)cc2[N+](=O)[O-])cc1`, the GI50 with HL-60 was 26.4 µM (inactive); with HCT-116, 53.6 µM (inactive); with COLO 205, > 100 µM (inactive); in the assay with SF-539 it was > 100 µM (inactive); in the assay with SN12C, > 100 µM (inactive); with EKVX, 48.3 µM (inactive). Besides, the GI50 in the assay with SK-MEL-28 was 65.6 µM (inactive); in the assay with HT-29, 40.7 µM (inactive); in the assay on ACHN, 69.2 µM (inactive); in the assay on SF-268, > 100 µM (inactive); in the assay on UACC-62, > 100 µM (inactive); in the assay with SK-MEL-2 it was > 100 µM (inactive). Also, the GI50 was 63.8 µM in the assay on HCT-15; > 100 µM (inactive) in the assay on IGROV-1; 92.9 µM (inactive) in the assay on A549; 29.8 µM (inactive) in the assay with SK-MEL-5; 38.2 µM (inactive) with OVCAR-5.
Turning to `CCOC(=O)/C(C#N)=C(N)/C(=N\Nc1cccc(C(F)(F)F)c1)C(=O)OCC`, the GI50 is 75.9 µM (inactive) in the assay on HL-60; > 100 µM (inactive) with SNB-19; > 100 µM (inactive) in the assay with HCT-116; > 100 µM (inactive) in the assay on COLO 205; > 100 µM (inactive) in the assay on SF-539; > 100 µM (inactive) in the assay with SN12C. Moreover, the GI50 with EKVX, with SK-MEL-28, with HT-29, with ACHN, with SF-268 and with UACC-62 was > 100 µM (inactive) in each case. For the same molecule, the GI50 in the assay with SK-MEL-2 was > 100 µM (inactive); in the assay with HCT-15, greater than 100 µM; in the assay on IGROV-1 it was > 100 µM (inactive); in the assay on A549, > 100 µM (inactive); with SK-MEL-5 it was > 100 µM (inactive); with OVCAR-5, > 100 µM (inactive).
With `CC(=O)Nc1ccc(-c2nnc(SCC(=O)Nc3ccccc3)o2)cc1`, the GI50 with HL-60 is 89.1 µM (inactive); with HCT-116, 31.2 µM (inactive); in the assay with COLO 205, > 100 µM (inactive); in the assay with SF-539, 71.1 µM (inactive); in the assay with SN12C, 90.4 µM (inactive); with SK-MEL-28, > 100 µM (inactive). The GI50 with HT-29 is 60.5 µM (inactive); in the assay on ACHN it was > 100 µM (inactive); in the assay on SF-268 it was > 100 µM (inactive); in the assay with UACC-62, 54.5 µM (inactive); in the assay with SK-MEL-2 it was > 100 µM (inactive); in the assay with HCT-15 it was 92 µM. For the same molecule, the GI50 in the assay with IGROV-1 is 47.6 µM (inactive); in the assay with A549, > 100 µM (inactive); in the assay on SK-MEL-5, 69 µM (inactive); in the assay with OVCAR-5, > 100 µM (inactive).
`CCOC(=O)C(C)NC(=O)N(C)C12CC3CC(CC(C3)C1)C2` (centres undefined): the GI50 in the assay with HL-60 is > 96.8 µM (inactive); in the assay on SNB-19, 412 µM (inactive); with HCT-116 it was 173 µM (inactive); in the assay with COLO 205, 140 µM (inactive); in the assay with SF-539, 344 µM (inactive); with SN12C, 385 µM (inactive). The GI50 in the assay on EKVX was 450 µM (inactive); in the assay with SK-MEL-28, 317 µM (inactive); in the assay on HT-29 it was 281 µM (inactive); in the assay on SF-268 it was 319 µM (inactive); in the assay on UACC-62, 175 µM (inactive); with SK-MEL-2, 169 µM (inactive). The GI50 with HCT-15 was 187 µM; in the assay with IGROV-1 it was 286 µM (inactive); in the assay on A549, 197 µM (inactive); with SK-MEL-5 it was 111 µM (inactive); with OVCAR-5, > 500 µM (inactive).
For `COc1ccc(-c2cc(N3CCN(c4ccc(Cl)cc4)CC3)c(C#N)c(=O)o2)cc1`, the GI50 in the assay on HL-60 is > 100 µM (inactive); in the assay with SNB-19, 2.93 µM (inactive); with HCT-116 it was 12.6 µM (inactive); in the assay on COLO 205 it was > 100 µM (inactive); with SF-539, 3.55 µM (inactive); with SN12C it was 15.1 µM (inactive). Further, the GI50 in the assay on EKVX was 11.4 µM (inactive); in the assay on SK-MEL-28 it was 6.9 µM (inactive); with HT-29 it was > 100 µM (inactive); in the assay with ACHN, 6.64 µM (inactive); with SF-268, 5.38 µM (inactive); in the assay with SK-MEL-2, 15.6 µM (inactive). Further, the GI50 in the assay with HCT-15 was 40.7 µM; with IGROV-1, 10.9 µM (inactive); in the assay with A549, 10.1 µM (inactive); with SK-MEL-5, 11.9 µM (inactive); in the assay on OVCAR-5, > 100 µM (inactive).
Turning to `O=P(c1ccccc1)(c1ccccc1)C1CC=C(c2ccccc2)C2(CCCC2)C1` (centres undefined), the GI50 is 21.6 µM (inactive) in the assay with HL-60; 48.6 µM (inactive) in the assay with SNB-19; 45 µM (inactive) in the assay with HCT-116; 22.8 µM (inactive) in the assay with COLO 205; > 100 µM (inactive) in the assay with SF-539; 59.7 µM (inactive) in the assay with SN12C. The GI50 was > 100 µM (inactive) with EKVX; 40.1 µM (inactive) with SK-MEL-28; 59.2 µM (inactive) with HT-29; 90.4 µM (inactive) in the assay with SF-268; 37.6 µM (inactive) in the assay with UACC-62; 46.7 µM (inactive) in the assay on SK-MEL-2. Also, the GI50 with HCT-15 is 36.1 µM; in the assay with IGROV-1 it was 42.7 µM (inactive); in the assay on A549, 40.3 µM (inactive); in the assay with SK-MEL-5, 71.8 µM (inactive); in the assay with OVCAR-5, 29.7 µM (inactive).
On to `c1c(N2CCOCC2)s[s+]c1N1CCOCC1`, for which the GI50 in the assay with HL-60, in the assay on SNB-19, in the assay with HCT-116, with SF-539, with SN12C and in the assay on EKVX was > 100 µM (inactive) in each case. In addition, the GI50 in the assay with SK-MEL-28 is > 100 µM (inactive); with HT-29 it was > 100 µM (inactive); with ACHN it was > 100 µM (inactive); in the assay with SF-268, > 100 µM (inactive); in the assay with UACC-62 it was > 100 µM (inactive); in the assay on SK-MEL-2, 7.06 µM (inactive). Moreover, the GI50 is greater than 100 µM with HCT-15; > 100 µM (inactive) in the assay on IGROV-1; > 100 µM (inactive) in the assay with A549; > 100 µM (inactive) with SK-MEL-5; > 100 µM (inactive) in the assay with OVCAR-5.
`COC(=O)Cc1cc(=O)n2c([nH]c3ccccc32)c1C#N`: the GI50 is > 100 µM (inactive) in the assay on HL-60; > 100 µM (inactive) with SNB-19; > 100 µM (inactive) in the assay on HCT-116; > 100 µM (inactive) in the assay with COLO 205; > 100 µM (inactive) with SF-539; 82.6 µM (inactive) with SN12C. In addition, the GI50 in the assay with EKVX was > 100 µM (inactive); in the assay on SK-MEL-28, > 100 µM (inactive); with HT-29, > 100 µM (inactive); in the assay with ACHN it was 63.1 µM (inactive); in the assay with SF-268 it was > 100 µM (inactive); in the assay on SK-MEL-2 it was > 100 µM (inactive). For the same molecule, the GI50 is greater than 100 µM with HCT-15; > 100 µM (inactive) in the assay with IGROV-1; > 100 µM (inactive) in the assay on A549; 34.8 µM (inactive) in the assay on SK-MEL-5; > 100 µM (inactive) with OVCAR-5.
With `CCOC(=O)C1S/C(=N\c2ccc(C)c(C)c2)N=C1C` (centres undefined), the GI50 with HL-60 is 61 µM (inactive); in the assay with SNB-19, > 100 µM (inactive); in the assay on COLO 205, > 100 µM (inactive); with SF-539 it was > 100 µM (inactive); in the assay with SN12C it was > 100 µM (inactive); in the assay with EKVX it was > 100 µM (inactive). For the same molecule, the GI50 in the assay on SK-MEL-28, with HT-29, in the assay with ACHN, with SF-268, in the assay on UACC-62 and with SK-MEL-2 was > 100 µM (inactive) throughout. For the same molecule, the GI50 in the assay with HCT-15 is greater than 100 µM; in the assay on IGROV-1 it was > 100 µM (inactive); in the assay with A549 it was > 100 µM (inactive); in the assay on SK-MEL-5, 52.7 µM (inactive); in the assay on OVCAR-5, > 100 µM (inactive).
As to `O=c1ccc2ccccc2o1` [COUMARIN], the GI50 in the assay on HL-60, in the assay on SNB-19, with HCT-116, with COLO 205, in the assay with SF-539 and in the assay with SN12C was > 100 µM (inactive) in each case. For the same molecule, the GI50 in the assay with EKVX, with SK-MEL-28, with HT-29, with ACHN, in the assay with SF-268 and in the assay on UACC-62 was > 100 µM (inactive) throughout. In addition, the GI50 in the assay on SK-MEL-2 was > 100 µM (inactive); with HCT-15, greater than 100 µM; with IGROV-1, > 100 µM (inactive); in the assay with A549, > 100 µM (inactive); in the assay with OVCAR-5, > 100 µM (inactive).
